Assay results taken from patent publication US20120202288A1, “COMPOSITIONS COMPRISING CYCLIC AMP ENHANCERS AND/OR EP LIGANDS, AND METHODS OF PREPARING AND USING THE SAME” (FATE THERAPEUTICS, INC., priority 2009, published 2012).
Read-outs that look alike come from different tables or passages of the source.

How the values were obtained:
[1] = Stability of 16,16-dimethyl PGE2 formulation, storage at −80° C.; type: physicochemical; conditions: for Assay (% LC): 10 mM in DMSO, 2 ml glass vial; for Purity (%): stability
Description: (§1) 16,16-dimethyl PGE2 and its related substances were separated on a Phenomenex, Synergi Hydro RP 4μ HPLC column with gradient elution conditions and detected at 205 nm. The assay of 16,16-dimethyl PGE2 was determined by comparing the 16,16-dimethyl PGE2 peak area of the test samples with that of a reference standard of known concentration and purity. The levels of the impurities and degradation products were determined from the peak area ratio of each individual impurity to the total peak area of the 16,16-dimethyl PGE2 and all impurities and degradation products. The identify of 16,16-dimethyl PGE2 was confirmed by comparing the retention time of the main peak of the test sample against that in the reference standard.
(§2) Stability tests were performed on formulations of 16,16-dimethyl PGE2 stored at either −80° C. or −20° C. for up to six months. These clinical formulations were composed of 10 mM 16,16-dimethyl PGE2 in […] DMSO, and were stored in a 2 ml Type I clear glass vial with a 13 mm West 4432/50 Teflon coated stopper. The results are shown in Tables 3 (−80° C.) and 4 (−20° C.) below.

[2] = tested on: hematopoietic stem cells (HSCs); assay: Ex vivo treatment of HSCs prior to transplant, engraftment of donor HSCs; type: in vivo; conditions: bone marrow cells incubated with 10 μM at 4° C. for one hour, then transplanted into allogeneic subject
Description: Bone marrow cells containing HSCs are obtained directly by removal from the hip of a donor subject using a needle and syringe. The heterogeneous mixture of bone marrow cells is transferred to two separate tissue culture flasks, and a suitable growth medium is provided.
262 μl of a 10 mM solution of 16,16-dimethyl PGE2 in DMSO is added to the cells in the first tissue culture flask, to a final working concentration of 10 μM of 16,16-dimethyl PGE2. The same amount of DMSO without agent is added to the second flask as a control, and the cells in both flasks are incubated at 4° C. (e.g., in an ice bath) for one hour. The 16,16-dimethyl PGE2 is at least 90% pure as measured by HPLC, and is produced by good manufacturing practice (GMP).
After incubation of the HSCs in the ice bath, the cells from each flask are administered to separate, but otherwise genetically identical subjects. These subjects are both allogeneic to the donor cells. The subjects are then observed for engraftment of the donor HSCs, using markers that are specific for the donor cells.

[3] = Stability of 16,16-dimethyl PGE2 formulation, storage at −20° C.; type: physicochemical; conditions: for Assay (% LC): 10 mM in DMSO, 2 ml glass vial; for Purity (%): stability
Description: as §1, §2

[4] = tested on: human umbilical cord-derived CD34+ cells; conditions: apoptosis induced by nitric oxide (NO) or serum deprivation; cited from earlier work
[5] = cited from earlier work
hepatic stellate cells = conditions: cited from earlier work
[6] = tested on: murine embryonic stem cell; conditions: cited from earlier work
dendritic cell (DC) = conditions: ex vivo or in vitro; withdrawal of growth factors or ceramide; cited from earlier work
transplanted stem cells = conditions: injection shortly after marrow cell graft; cited from earlier work

CCCCC(C)(C)[C@H](O)/C=C/[C@H]1[C@H](O)CC(=O)[C@@H]1C/C=C\CCCC(=O)O [16,16-dimethyl PGE2]
Assay (% LC) ([1]; 1 Month): 98.5 % LC | Assay (% LC) ([1]; 2 Months): 97.7 % LC | Assay (% LC) ([1]; 3 Months): 98.5 % LC | Assay (% LC) ([1]; 6 Months): 98.6 % LC | Assay (% LC) ([1]; Time Zero): 98.1 % LC | Product Appearance ([1]; 1 Month): conforms | Total Related Substances (%) ([1]; 1 Month): 5.33% | pH ([1]; 1 Month): 4.8 | Product Appearance ([1]; 2 Months): conforms | Total Related Substances (%) ([1]; 2 Months): 5.51% | pH ([1]; 2 Months): 4.7 | Product Appearance ([1]; 3 Months): conforms | Total Related Substances (%) ([1]; 3 Months): 5.35% | pH ([1]; 3 Months): 4.8 | Product Appearance ([1]; 6 Months): conforms | Total Related Substances (%) ([1]; 6 Months): 5.51% | pH ([1]; 6 Months): 4.7 | Product Appearance ([1]; Time Zero): conforms | Total Related Substances (%) ([1]; Time Zero): 5.52% | pH ([1]; Time Zero): 4.5 | Purity (%) ([1]; 1 Month): 94.7% | Purity (%) ([1]; 2 Months): 94.5% | Purity (%) ([1]; 3 Months): 94.7% | Purity (%) ([1]; 6 Months): 94.5% | Purity (%) ([1]; Time Zero): 94.5% | number of engrafted HSC donor cells versus control-treated cells [2]: significantly greater number of engrafted HSC donor cells | Assay (% LC) ([3]; 1 Month): 98.7 % LC | Assay (% LC) ([3]; 2 Months): 97.4 % LC | Assay (% LC) ([3]; 3 Months): 98.8 % LC | Assay (% LC) ([3]; 6 Months): 97.5 % LC | Assay (% LC) ([3]; Time Zero): 98.1 % LC | Product Appearance ([3]; 1 Month): conforms | Total Related Substances (%) ([3]; 1 Month): 5.22% | pH ([3]; 1 Month): 4.8 | Product Appearance ([3]; 2 Months): conforms | Total Related Substances (%) ([3]; 2 Months): 5.52% | pH ([3]; 2 Months): 4.7 | Product Appearance ([3]; 3 Months): conforms | Total Related Substances (%) ([3]; 3 Months): 5.54% | pH ([3]; 3 Months): 4.6 | Product Appearance ([3]; 6 Months): conforms | Total Related Substances (%) ([3]; 6 Months): 5.95% | pH ([3]; 6 Months): 4.6 | Product Appearance ([3]; Time Zero): conforms | Total Related Substances (%) ([3]; Time Zero): 5.52% | pH ([3]; Time Zero): 4.5 | Purity (%) ([3]; 1 Month): 94.8% | Purity (%) ([3]; 2 Months): 94.5% | Purity (%) ([3]; 3 Months): 94.5% | Purity (%) ([3]; 6 Months): 94.0% | Purity (%) ([3]; Time Zero): 94.5%

O[C@@H]1[C@@H]2OP(O)(=S)OC[C@H]2O[C@H]1n1cnc2cc(Cl)c(Cl)cc21 (stereo partly drawn) [BIMPS, sp-5,6-DCl-BIMPS]
survival of CD34+ cells [4]: promote survival

CCCCC[C@@H](/C=C/[C@H]1[C@H](OC)CC(=O)[C@@H]1C/C=C\CCCC(=O)O)OC [ONO-AE-248]
effect on core temperature (Tc) ([5]; 20 nmol): increased the Tc

CCCC[C@H](C)C[C@H](O)/C=C/[C@H]1[C@H](O)CC(=O)[C@@H]1CC(=O)C1CCC(C(=O)O)CC1 (stereo partly drawn) [ONO-DI-004]
effect on core temperature (Tc) ([5]; in vivo): increase the core temperature (Tc) in a dose-dependent manner

CCCCC[C@H](O)/C=C/[C@H]1[C@H](O)CC(=O)[C@@H]1C/C=C\CCCC(=O)O [PGE2, Prostaglandin E2]
mitogenesis of hepatic stellate cells (hepatic stellate cells): inhibits the mitogenesis | amplification of multipotent progenitors [6]: cause amplification of multipotent progenitors | protection of DC against apoptosis (dendritic cell (DC)): protects DC

CCCC(=O)Nc1ncnc2c1ncn2[C@@H]1O[C@@H]2COP(=O)(O)O[C@H]2[C@H]1OC(=O)CCC [dibutyryl-cAMP, dibutyryl cyclic adenosine 3′,5′-monophosphate]
entry of transplanted stem cells into S phase (transplanted stem cells): triggers the transplanted stem cells into entering S phase | survival of CD34+ cells [4]: promote survival

CC(C)NCC(O)c1ccc(O)c(O)c1 (stereo not drawn) [isoproterenol]
entry of transplanted stem cells into S phase (transplanted stem cells): triggers the transplanted stem cells into entering S phase
